Molecules are shown by their SMILES. Values after ≈ are worked out from the molar mass of the structure shown. A value given as a limit tells only on which side of the number the result lay.

The conditions of the series: buffer; pH 7.4; 200.0 µM.
For the compound `Cc1cc(NC(=O)CN2C(=O)NC(C)(c3ccccc3Cl)C2=O)no1` (stereo not given), the kinetic solubility (as a rule, the concentration staying in solution when a stock, usually in DMSO, is diluted into the medium) was found to be 28 µg/mL (≈ 77.2 µM). Turning to `CCS(=O)(=O)C(C)(CCl)C(=O)Nc1ccc(C(=O)OC)cc1` (stereo not given), the solubility (kinetic) is above 52.2 µg/mL. With `N#CCCN(Cc1ccccc1)C(=O)c1nccnc1C(=O)O`, the kinetic solubility is above 46.5 µg/mL.

`O=S(=O)(Nc1ccccc1N1CCCCC1)c1ccc(F)cc1`: the solubility (kinetic) stood at 2.5 µg/mL (≈ 7.48 µM). In the case of `CC(=O)c1ccc(NCCC(=O)c2ccccc2)cc1`, the kinetic solubility was below 0.6 µg/mL. `CC1CCCC(NC(=O)COC(=O)COc2ccc(C#N)cc2)C1C` (stereo not given) gave a kinetic solubility of 45.4 µg/mL (≈ 132 µM). `O=C(NCc1ccco1)C(=O)c1cn(CC(=O)N2CCCC2)c2ccccc12` registered a kinetic solubility above 56.9 µg/mL. Under `COc1ccc(C(=O)N2CCCc3ccccc32)cc1Br` stands 26.4 µg/mL (≈ 76.3 µM); under `CCCn1c(C(=O)c2ccccc2)nc2ccccc21`, 9.7 µg/mL (≈ 36.7 µM); under `COc1ccc(NC(=O)c2sccc2-n2cccc2)cc1`, 3.4 µg/mL (≈ 11.4 µM). In turn, `CC1(NC(=O)Cc2csc(-c3ccc(Cl)cc3)n2)CCS(=O)(=O)C1` (stereo not given) returned a solubility (kinetic) above 57.7 µg/mL.

Consider `CCCS(=O)(=O)N1CCCC(C(=O)c2ccccc2OC)C1` (stereo not given), for which the kinetic solubility is above 48.8 µg/mL. The same measure for `COCCCNC(=S)Nc1ccccc1[N+](=O)[O-]`: above 40.4 µg/mL; for `FC(F)(F)c1ccc(NC2=NCCCS2)cc1`: 15.6 µg/mL (≈ 59.9 µM). Take `COc1ccc(NC(=O)CSc2nnc(N)s2)cc1S(=O)(=O)N1CCCCC1`: the solubility (kinetic) is above 66.5 µg/mL. The same measure for `COc1ccccc1NC(=O)/C(=C/c1ccncc1)NC(=O)c1ccccc1`: 22.2 µg/mL (≈ 59.5 µM); for `CC(C)(C)N(Cc1ccccc1)C(=O)c1cc2ccccc2o1`: 1.1 µg/mL (≈ 3.58 µM). Turning to `O=c1[nH]c(S)c(/C=C2\C=Nc3ccccc32)s1`, the solubility (kinetic) is 9.6 µg/mL (≈ 36.9 µM). The compound `COc1ccc(-c2cc3nc4n(c(=O)c3s2)CCCCC4)cc1` gave a kinetic solubility below 0.3 µg/mL. Under `CCOc1ccc(Nc2cc(C)c3ccccc3n2)cc1` stands below 0.3 µg/mL; under `O=C(c1cc(-c2cccc(Cl)c2)on1)N1CCCC1`, 7.5 µg/mL (≈ 27.1 µM).

In turn, `NS(=O)(=O)c1ccc(CCNC(=O)Cc2ccc(Cl)cc2)cc1` had a solubility (kinetic) above 52.9 µg/mL.

In turn, `Cc1cccc(C)c1NC(=O)CN(C)C(=O)C1CCCCC1` displayed a solubility (kinetic) above 45.4 µg/mL. In the case of `S=C1NCN(Cc2ccccc2)CN1C1CCCCC1`, the kinetic solubility turned out to be 4.5 µg/mL (≈ 15.5 µM). `CC(=O)c1ccc(NC(=O)C[n+]2ccccc2)cc1.[Cl-]`: the solubility (kinetic) is above 43.6 µg/mL. On to `CSc1sc(-c2ccnc(=S)[nH]2)c(-c2ccccc2)c1C#N`, for which the solubility (kinetic) was 8.2 µg/mL (≈ 24 µM).

For `COc1ccccc1Nc1nc2cc(C)ccc2cc1C#N`, the kinetic solubility was below 0.2 µg/mL.

As to `CCOc1ccc(-c2nc(CCl)cs2)cc1.Cl`, the kinetic solubility was found to be 8.5 µg/mL. For the compound `O=C(Oc1c(-c2ccccc2)c(=O)n2c3c(cccc13)CC2)c1cccc([N+](=O)[O-])c1`, the solubility (kinetic) came to 5.2 µg/mL (≈ 12.6 µM). For the compound `Cc1cccc(C(=O)NC(=S)NC(C)c2ccccc2)c1` (stereo not given), the solubility (kinetic) amounted to 1 µg/mL (≈ 3.35 µM). In turn, `O=C1CC(c2ccccc2)CC(O)=C1C=NCCc1ccccc1` (stereo not given) showed a kinetic solubility of 2.1 µg/mL (≈ 6.57 µM). Take `COc1ccc(CNC(=O)CC(C)c2ccccc2)cc1` (stereo not given): the solubility (kinetic) is 36.9 µg/mL (≈ 130 µM).

The compound `CCc1cccc(CC)c1-n1c(SCC(=O)N2CCCc3ccccc32)nc(O)cc1=O` gave a solubility (kinetic) above 67.4 µg/mL. Consider `Cc1ccc2ccccc2c1NC(=O)c1ccco1`, for which the kinetic solubility was above 37.7 µg/mL.

With `COC(=O)CC1C(=O)NCCN1C(=O)c1ccc(Cl)cc1` (stereo not given), the solubility (kinetic) is above 46.6 µg/mL. The compound `NS(=O)(=O)c1cnccc1NCCc1ccccc1` had a solubility (kinetic) of 40.3 µg/mL (≈ 145 µM). Turning to `Cn1c(=O)c2ccccc2n2c(=S)[nH]nc12`, the kinetic solubility is above 34.8 µg/mL.

Regarding `CSc1ccc(C2Nc3cccc4cccc(c34)N2)cc1`, the solubility (kinetic) turned out to be 2.4 µg/mL (≈ 8.21 µM). Regarding `COCCNC(=S)N(c1ccccc1)C(C)C`, the kinetic solubility was above 37.9 µg/mL.

`Cc1nnc(NC(=O)c2ccc3nccnc3c2)s1` displayed a solubility (kinetic) above 40.7 µg/mL.

Turning to `CC(C)(C)c1csc(NC(=O)c2c(F)c(F)c(F)c(F)c2F)n1`, the solubility (kinetic) was determined as 21.3 µg/mL (≈ 60.8 µM). In turn, `Cl.NOCC(=O)O` came in with a solubility (kinetic) above 16.4 µg/mL. `O=C(NC(=S)N1CCCC1)c1cccc([N+](=O)[O-])c1`: the solubility (kinetic) was determined as 39.5 µg/mL (≈ 141 µM). In the case of `CN(C)S(=O)(=O)N1CCN(CC(=O)Nc2ccc(F)cc2)CC1`, the solubility (kinetic) was above 51.7 µg/mL. The compound `O=C(O)/C=C\C(=O)Nc1ccc(OC(F)F)cc1` showed a solubility (kinetic) of 35.5 µg/mL (≈ 138 µM). `CC(C)=C(NC(=O)c1ccccc1)C(=O)Nc1cccc(C(=O)O)c1` displayed a solubility (kinetic) above 50.8 µg/mL.

Compound `COc1cccc(C(=O)NCC(=O)N/N=C/c2cccnc2)c1` had a kinetic solubility above 46.8 µg/mL. The compound `COc1ccccc1NC(=O)COc1ccc(C(=O)NCC2CCCO2)cc1OC` (stereo not given) registered a kinetic solubility of 51.5 µg/mL (≈ 124 µM). Take `O=C1CSC(c2cccnc2)N1CC1CC1` (stereo not given): the solubility (kinetic) is above 35.1 µg/mL.

For `Cc1csc(NC(=O)CSc2nccn2Cc2ccco2)n1`, the solubility (kinetic) came out at 47.7 µg/mL (≈ 143 µM). Consider `CC(C)(C)OC(=O)NCCNC(=O)c1cccs1`, for which the solubility (kinetic) was above 40.6 µg/mL. On to `O=C(CSc1ccccc1)NC1=NCCS1`, for which the solubility (kinetic) came to 32.4 µg/mL (≈ 128 µM). For the compound `CN(C(=O)COC(=O)CCC(=O)c1ccc(F)cc1)C1CCCCC1`, the kinetic solubility was above 52.4 µg/mL. For the compound `CN(C)S(=O)(=O)c1cccc(C(=O)NC2CCSc3ccccc32)c1` (stereo not given), the solubility (kinetic) is 4.8 µg/mL (≈ 12.7 µM). Compound `CCc1ccc(S(=O)(=O)Nc2ccc(N3CCN(C)CC3)cc2)cc1` gave a kinetic solubility of 50.8 µg/mL (≈ 141 µM). In turn, `Cc1ccc(CNCCCSc2ncccn2)cc1` displayed a kinetic solubility of 36.3 µg/mL (≈ 133 µM). Under `O=C(c1cnc2ccccc2n1)N1CCN(c2ccc(C(F)(F)F)cn2)CC1` stands 1 µg/mL (≈ 2.58 µM); under `Cc1cc(-c2nc(-c3ccc(C(C)(C)C)cc3)no2)no1`, below 0.2 µg/mL; under `Cc1ccc(N2C(=O)C3CCC(C)(C2=O)C3(C)C)cc1C` (stereo not given), 32.3 µg/mL (≈ 113 µM).

`CC(C)(C)NCC(O)c1cc(Cl)c(N)c(Cl)c1.Cl` (stereo not given) yielded a kinetic solubility of 46.5 µg/mL. For the compound `O=C(CCNC(=O)c1ccco1)Nc1nc(-c2ccccc2)cs1`, the solubility (kinetic) was 8.5 µg/mL (≈ 24.9 µM). Under `C=CCn1c(NCc2ccccc2OC)nc2ccccc21` stands 30.2 µg/mL (≈ 103 µM). The same measure for `CC(C)N(Cc1cc2ccccc2[nH]c1=O)C(=O)c1cccc([N+](=O)[O-])c1`: 3.4 µg/mL (≈ 9.31 µM); for `CC(C)(C)c1ccc(C(=O)NC(=O)COC(=O)c2ccc(Br)o2)cc1`: 12.5 µg/mL (≈ 30.6 µM). In the case of `N#Cc1c(-c2ccccc2Cl)c2c([nH]c1=O)-c1ccccc1OC2`, the kinetic solubility amounted to 11.6 µg/mL (≈ 34.7 µM). `CCCNC(=O)NC(=O)c1cnccc1C(F)(F)F` came in with a solubility (kinetic) of 34.8 µg/mL (≈ 126 µM). Consider `Cc1cc(=O)oc2cc(OCC(=O)N3CCCC3)ccc12`, for which the kinetic solubility was above 43.1 µg/mL. `C1CCC2S[C@H]3CCCCC3NC2C1` (stereo not given in full): the solubility (kinetic) was determined as 25.3 µg/mL (≈ 120 µM). For the compound `Cc1nc(SCc2cccc(C(=O)O)c2)nc2c1CCCC2`, the kinetic solubility was above 47.2 µg/mL. Regarding `Cc1cc(C)cc(C(N)=Nc2cccc(C#N)c2)c1`, the kinetic solubility was above 37.4 µg/mL. Take `O=C(C1CCN(S(=O)(=O)c2ccc(Cl)cc2)CC1)N1CCCC1`: the solubility (kinetic) was 35.9 µg/mL (≈ 101 µM). As for `NC(=O)c1ccc[n+](CC(=O)c2ccc(F)cc2)c1.[Br-]`, the kinetic solubility was above 50.9 µg/mL. `Cc1ccc(S(=O)(=O)NCCc2c[nH]c3ccccc23)cc1` gave a kinetic solubility of 37.7 µg/mL (≈ 120 µM). In turn, `O=c1cc(-c2ccccc2)nc(SCc2ccccc2F)[nH]1` gave a kinetic solubility below 0.3 µg/mL. Consider `COc1ccc(/C=C/C(=O)N2CCN(c3ccccn3)CC2)cc1OC`, for which the kinetic solubility was above 53 µg/mL.

`O=C(Cn1cncn1)NCCCc1ccccc1` yielded a kinetic solubility above 36.6 µg/mL.

Consider `Cc1cccc(C)c1NC(=O)c1ccc(OCc2c(C)noc2C)cc1`, for which the kinetic solubility is 8.7 µg/mL (≈ 24.8 µM). In turn, `Cc1ccc(NC(=O)c2cccs2)cc1[N+](=O)[O-]` registered a solubility (kinetic) of 2.4 µg/mL (≈ 9.15 µM). `CCn1c(C(O)c2cc(OC)c(OC)c(OC)c2)nc2ccccc21` (stereo not given) returned a solubility (kinetic) of 47.7 µg/mL (≈ 139 µM).

Turning to `O=C(Nc1ccccc1)C(=O)Nc1cccnc1`, the kinetic solubility was 6.9 µg/mL (≈ 28.6 µM). `O=C(/C=C/c1ccc(Cl)cc1)Nc1ccc(Br)cn1` displayed a solubility (kinetic) below 0.4 µg/mL. `Cn1c(SCC(=O)N2CCCC2=O)nc2ccccc21` came in with a kinetic solubility above 43.4 µg/mL.

Turning to `COc1cc(S(=O)(=O)N(C)C2CCCCC2)c(C)cc1C`, the solubility (kinetic) came to 1.5 µg/mL (≈ 4.82 µM). Turning to `CCc1noc(C)c1C(=O)Nc1ccccc1C(C)(C)C`, the kinetic solubility was 39 µg/mL (≈ 136 µM). The compound `COc1ccc(Cl)cc1NC(=O)COC(=O)c1cc(C)oc1C` displayed a kinetic solubility of 4.2 µg/mL (≈ 12.4 µM). Consider `CC(Sc1nccn1C)C(=O)Nc1ccc(Cl)cn1` (stereo not given), for which the solubility (kinetic) was above 44.5 µg/mL.

In turn, `c1ccc(CCn2cnc3ccccc32)cc1` displayed a solubility (kinetic) of 29.3 µg/mL (≈ 132 µM).

Consider `O=C(Nc1ccccc1Cl)Nc1cccnc1Cl`, for which the kinetic solubility was 2.8 µg/mL (≈ 9.92 µM).

For the compound `CC(=O)c1ccc(N=C2NC(=O)C(CO)(CO)S2)cc1`, the solubility (kinetic) is 43.2 µg/mL (≈ 147 µM). `Cc1ccc(NC(=O)COC(=O)C2CC2)cc1Cl` showed a solubility (kinetic) of 35.6 µg/mL (≈ 133 µM). On to `Cn1cccc1C(=O)NCc1ccccn1`, for which the kinetic solubility was above 32.3 µg/mL. Consider `Cc1cc(C(=O)CN2C(=O)NC(CCS(C)(=O)=O)C2=O)c(C)n1C1CC1` (stereo not given), for which the kinetic solubility was found to be 48.3 µg/mL (≈ 127 µM). Regarding `COc1ccc(Cl)cc1N=Cc1c(O)n(C)c(=O)n(C)c1=O`, the solubility (kinetic) came out at 2 µg/mL (≈ 6.18 µM). The compound `OCCN(CCO)c1nc2ccccc2[nH]1` had a solubility (kinetic) above 33.2 µg/mL. Turning to `COC(=O)c1cn(CC(=O)Nc2ccccc2C)c2ccccc12`, the solubility (kinetic) came out at 0.4 µg/mL (≈ 1.24 µM). As for `CC(Oc1ccc(-c2nnco2)cc1)C(=O)N1CCOCC1` (stereo not given), the kinetic solubility is above 45.5 µg/mL. Under `O=C(c1cc(=O)[nH]c2ccccc12)N1CCN(c2ccccc2)CC1` stands above 50 µg/mL.

With `O=C(COC(=O)c1ccccc1O)Nc1ncc(Cl)cc1Cl`, the solubility (kinetic) came out at 23.5 µg/mL (≈ 68.9 µM).

For `O=C(CS(=O)(=O)c1ccccc1)Nc1ccc(Cl)cn1`, the kinetic solubility is above 46.6 µg/mL. Under `CSc1ccc(/C=C/C(=O)OCC(=O)N2CCCCCC2)cc1` stands 3.8 µg/mL (≈ 11.4 µM); under `Cc1ccccc1OCc1nc(C#N)c(N2CCCC2)o1`, 10.9 µg/mL (≈ 38.5 µM). `Cc1cc2ccccn2c1C(=O)c1ccccc1F` gave a kinetic solubility of 12.5 µg/mL (≈ 49.4 µM).

As for `CC(C)c1ccc(NC(=O)C2CC2c2ccccc2)cc1` (stereo not given), the solubility (kinetic) was determined as 12 µg/mL (≈ 43 µM). As for `Cl.NCCSC1CC(=O)N(Cc2ccc(F)cc2)C1=O` (stereo not given), the kinetic solubility is 37.9 µg/mL.

`COc1ccc(S(=O)(=O)N(C)C)cc1NC(=O)COC(=O)C1CC1` yielded a solubility (kinetic) above 53.5 µg/mL.

The values are drawn from PubChem BioAssay AID1996.
